Earlier results, collected in US20250228849A1, “FORMULATION AND MANUFACTURING PROCESS OF LIQUID FORMULATION OF RILPIVIRINE” (Aptorum Therapeutics Limited, priority 2024, published 2025).
Read-outs that look alike come from different tables or passages of the source.

Assays:
[1] = hydrochloride salt form
[2] = pyrimidine nitrogen

## Cc1cc(C=CC#N)cc(C)c1Nc1ccnc(Nc2ccc(C#N)cc2)n1.Cl [Rilpivirine hydrochloride, 4-[[4-[[4-(2-cyanovinyl)-2,6-dimethylphenyl]amino]pyrimidin-2-yl]amino]benzonitrile hydrochloride]
In DMSO
  solubility: moderately soluble
In ethanol
  solubility: moderately soluble
In methanol
  solubility: moderately soluble
In water
  solubility: merely sparing solubility
[1]
  BCS class: BCS Class II
[2]
  pKa: approximately 5.6

## Cc1cc(/C=C/C#N)cc(C)c1Nc1ccnc(Nc2ccc(C#N)cc2)n1 [rilpivirine]
In water
  solubility: low aqueous solubility
